Source: patent US20100022527A1, “BIPHENYL SUBSTITUTED SPIROTETRONIC ACIDS AND THEIR USE FOR THE TREATMENT OF RETROVIRAL DISEASES” (priority 2006, published 2010)

Biological target: T1, HIV-1 protease wild type protein (Human immunodeficiency virus type 1 group M subtype B, UniProt P04585)
T1 construct: HIV-1 protease wild type protein; purchased AscoProt Biotech, Prague, Czech Republic
Test: Biochemical protease assay
Protocol: For the determination of their in vitro activity on HIV proteases the test substances are dissolved in DMSO and serially diluted. In each case 0.5 μl of substance dilution, 20 μl of 0.2-1 nM HIV-1 protease wild type or mutant protein (e.g., multiresistant isolate “35513”: L10I, I15V, L19I, K20R, E35D, M36I, R41K, I54V, L63P, H69K, A71V, T74P, I84V, L89M, L90M, 193L, AscoProt Biotech, Prague, Czech Republic) in buffer 1 (50 mM sodium acetate pH 4.9, 0.02% BSA, 0.1 mM EDTA, 0.5 mM DTT) and 20 μl of 8 μM substrate (M1865 from Bachem, Bubendorf, Switzerland; Matayoshi et al., Science 1990, 247, 954-8) in buffer 1 are added successively to a 384 well microtiter plate (Greiner, Frickenhausen, Germany), incubated for 60-180 minutes at 32° C. and the fluorescence is measured (e.g., Tecan Safire, 340 nm extinction, 520 nm emission). IC50 values are determined by graphical plotting the substance concentration against the percentage inhibition.

SMILES	IC50 [nM]
Cc1cc(-c2cccc(NS(C)(=O)=O)c2)c(Cl)cc1C1=C(O)C2(CCCCC2)OC1=O [Example 176, N-[2′-Chloro-4′-(4-hydroxy-2-oxo-1-oxaspiro[4.5]dec-3-en-3-yl)-5′-methylbiphenyl-3-yl]methanesulfonamide]	≤ 100
CCCS(=O)(=O)Nc1cccc(-c2cc(C)c(C3=C(O)C4(CCCCC4)OC3=O)cc2Cl)c1 [Example 177]	≤ 100
Cc1cc(-c2ccc(NS(C)(=O)=O)cc2)c(Cl)cc1C1=C(O)C2(CCCCC2)OC1=O [Example 178]	≤ 100
Cc1cc(-c2ccc(NS(C)(=O)=O)cc2)c(Cl)cc1C1=C(O)C2(CCC3CCCC3C2)OC1=O (centres unmarked) [Example 180]	≤ 100
Cc1cc(-c2cccc(NC(=O)CCCN(C)C)c2)c(Cl)cc1C1=C(O)C2(CCCCC2)OC1=O [Example 181]	≤ 100
Cc1cc(-c2cccc(NC(=O)CN(C)C)c2)c(Cl)cc1C1=C(O)[C@]2(CC[C@@H]3CCC[C@@H]3C2)OC1=O [Example 182]	≤ 100
Cc1cc(-c2cccc(NC(=O)CCN)c2)c(Cl)cc1C1=C(O)[C@]2(CC[C@@H]3CCC[C@@H]3C2)OC1=O [Example 183]	≤ 100
CC(=O)Nc1cc(-c2cc(C)c(C3=C(O)C4(CCCCC4)OC3=O)cc2Cl)ccc1C [Example 184, N-[2′-Chloro-4′-(4-hydroxy-2-oxo-1-oxaspiro[4.5]dec-3-en-3-yl)-4,5′-dimethylbiphenyl-3-yl]acetamide]	≤ 100
Cc1cc(-c2cccc(N(C)S(C)(=O)=O)c2)c(Cl)cc1C1=C(O)C2(CCCCC2)OC1=O [Example 185, N-[2′-Chloro-4′-(4-hydroxy-2-oxo-1-oxaspiro[4.5]dec-3-en-3-yl)-5′-methylbiphenyl-3-yl]-N-methylmethanesulfonamide]	≤ 100
Cc1cc(-c2cccc(NS(C)(=O)=O)c2)c(Cl)cc1C1=C(O)C2(CCC3CCCC3C2)OC1=O (centres unmarked) [Example 189]	≤ 100
CCS(=O)(=O)Nc1cccc(-c2cc(C)c(C3=C(O)C4(CCCCC4)OC3=O)cc2Cl)c1 [Example 190]	≤ 100
Cc1cc(-c2cccc(NS(=O)(=O)Cc3ccccc3)c2)c(Cl)cc1C1=C(O)C2(CCCCC2)OC1=O [Example 191]	≤ 100
Cc1cc(-c2cccc(NS(=O)(=O)c3cccnc3)c2)c(Cl)cc1C1=C(O)C2(CCCCC2)OC1=O [Example 192]	≤ 100
C=CS(=O)(=O)Nc1cccc(-c2cc(C)c(C3=C(O)C4(CCCCC4)OC3=O)cc2Cl)c1 [Example 193, N-[2′-Chloro-4′-(4-hydroxy-2-oxo-1-oxaspiro[4.5]dec-3-en-3-yl)-5′-methylbiphenyl-3-yl]ethenesulfonamide]	≤ 100
Cc1cc(-c2cccc(S(C)(=O)=O)c2)c(Cl)cc1C1=C(O)C2(CCCCCC2)OC1=O [Example 198]	≤ 100
Cc1cc(-c2cccc(NS(C)(=O)=O)c2)c(Cl)cc1C1=C(O)C2(CCCCCC2)OC1=O [Example 199]	≤ 100
Cc1cc(-c2cccc(S(C)(=O)=O)c2)c(Cl)cc1C1=C(O)C2(CCCC2)OC1=O [Example 200]	≤ 100
Cc1cc(-c2ccccc2)c(Cl)cc1C1=C(O)C2(CCCC2)OC1=O [Example 201]	≤ 100
Cc1cc(-c2cccc(NS(C)(=O)=O)c2)c(Cl)cc1C1=C(O)C2(CCCC2)OC1=O [Example 202]	≤ 100
Cc1cc(-c2cccc(S(C)(=O)=O)c2)c(Cl)cc1C1=C(O)C2(CCCN(CC(=O)NCc3ccc(Cl)s3)C2)OC1=O (centres unmarked) [Example 203]	≤ 100
